{"source": "paper PMC10590383", "about": "“Repurposing conformational changes in ANL superfamily enzymes to rapidly generate biosensors for organic and amino acids” (Nature Communications, 2023)", "key": {"[1]": {"assay": "Substrate (ligand) specificity of […]s", "assay_type": "biochemical", "conditions": "for fluorescence response of GECFINDER to each substrate, AVE of 3 repeats: Supplementary Fig. 3 c, substrate specificity", "outline": "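Purified biosensor protein (0.75 μM) with ligand, 1 mM ATP and 2.5 mM MgCl2 in 100 mM Tris-HCl, pH 7.5, at room temperature. Fluorescence (Ex 460 or 480/Em 510 nm) read each minute for 15 min. Dose-response fitted by 5-parameter logistic; specificity tested with 20 amino acids at 100 μM as normalized ΔF/F0.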"}, "[2]": {"assay": "Fluorescence spectra / excitation wavelength scan of […]s", "assay_type": "physicochemical", "conditions": "Wavelength 300 nm", "procedure": "Fig. 3 Dose–response curves and fluorescence spectrums of […]s. a, c, e, g, i, k Dose–response curve of purified […]s with increasing concentrations of ligand in 100 mM Tris-HCl buffer (pH=7.5). […] All data shown are mean ± S.D. (n = 3 biologically independent samples). Source data are provided as a Source data file.\nThe study conducted dose–response curve, substrate specificity, and fluorescent spectrum analyses in 100-mM Tris buffer (pH = 7.5), while pH stability experiments were performed in 100-mM Tris buffer at three different pH values (6.5, 7.5, and 8.5) at room temperature. […] protein at a concentration of 0.75 μM, various small molecule concentrations, 1 mM ATP, and 2.5 mM MgCl2 were used in the experiments. Fluorescent signals were detected using a Microplate Reader (Synergy H4, Bio Tek) at an excitation/emission wavelength of 460 nm/510 nm or 480 nm/510 nm. The dose-response curve was determined immediately after the addition of the analyte. The total duration of the measurement was 15 min, with readings taken at one-minute intervals. The dose-response curve was plotted using the fluorescence values obtained after achieving stability in the fluorescence signal. The dose-response curves were fitted using the logistic model LOGISTIC5 available in Origin 2021, which could provide a more adequate fit to asymmetric dose-response data[62],[63]. Excitation spectra were scanned from 300 to 540 nm with a step size of 5 nm, and the emission wavelength was set to 560 nm. Emission spectra were scanned from 470 to 700 nm with a step size of 5 nm, and the excitation wavelength was set to 450 nm. The thermal stability of […] was analyzed using the UNcle multifunctional protein stability analysis system. Measurements were performed in 20 mM MOPS buffer with 2 mM DTT at a sample concentration of 1 mg/mL. Absolute fluorescence quantum yields were measured using an absolute photoluminescence quantum yield spectrometer (FS5, Edinburgh)."}}, "data": [{"smiles": "N[C@@H](Cc1cnc[nH]1)C(=O)O", "note": "[His]", "values": [{"measurement": "fluorescence response of GECFINDER to each substrate, AVE of 3 repeats", "setting": "[1]", "value": 0.0452}, {"measurement": "Wavelength scan, AVE of Repeat 1-3 (Fig. 3 l)", "setting": "[2]; 0.005 μM His", "value": 201.667}, {"measurement": "Wavelength scan, AVE of Repeat 1-3 (Fig. 3 l)", "setting": "[2]; 10 μM His", "value": 165.667}, {"measurement": "Wavelength scan, AVE of Repeat 1-3 (Fig. 3 l)", "setting": "[2]; 1000 μM His", "value": 210}]}, {"smiles": "CC[C@H](C)[C@H](N)C(=O)O", "note": "[Ile]", "values": [{"measurement": "fluorescence response of GECFINDER to each substrate, AVE of 3 repeats", "setting": "[1]", "value": 0.009799}, {"measurement": "Wavelength scan, AVE of Repeat 1-3 (Fig. 3 j)", "setting": "[2]; 0.05 μM Ile", "value": 3399.67}, {"measurement": "Wavelength scan, AVE of Repeat 1-3 (Fig. 3 j)", "setting": "[2]; 100 μM Ile", "value": 3371.67}, {"measurement": "Wavelength scan, AVE of Repeat 1-3 (Fig. 3 j)", "setting": "[2]; 10000 μM Ile", "value": 3289.33}]}, {"smiles": "N[C@@H](Cc1ccccc1)C(=O)O", "note": "[Phe]", "values": [{"measurement": "AVE of Repeat 1-3, sensor signal with ligand (Supplementary Fig. 7 c)", "setting": "[1]; 0.5 mM ligand, Control AVE 12117.3", "value": 23386.3}, {"measurement": "fluorescence response of GECFINDER to each substrate, AVE of 3 repeats", "setting": "[1]", "value": 0.3443}, {"measurement": "Wavelength scan, AVE of Repeat 1-3 (Fig. 3 d)", "setting": "[2]; 0.001 μM Phe", "value": 174.667}, {"measurement": "Wavelength scan, AVE of Repeat 1-3 (Fig. 3 d)", "setting": "[2]; 1 μM Phe", "value": 212}]}]}
